One test deals with T1, 14-3-3γ/ChREBP (Homo sapiens, UniProt P61981+Q9NP71).
T1 construct: made in house; host or cells: E. coli NiCo21 (DE3) for 14-3-3 gamma; ChREBP is a synthetic peptide
T1 sequence (P61981 1-247): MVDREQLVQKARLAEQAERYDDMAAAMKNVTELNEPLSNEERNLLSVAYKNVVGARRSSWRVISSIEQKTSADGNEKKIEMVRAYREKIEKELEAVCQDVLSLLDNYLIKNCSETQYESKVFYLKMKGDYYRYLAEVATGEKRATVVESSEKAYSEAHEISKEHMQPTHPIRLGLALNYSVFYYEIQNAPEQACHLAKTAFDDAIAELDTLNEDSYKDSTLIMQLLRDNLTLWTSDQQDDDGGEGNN
T1 sequence (Q9NP71 118-142 partner limits assumed): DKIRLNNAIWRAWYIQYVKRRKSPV
As to the kind of experiment: 2D FA titration of 14-3-3/ChREBP and cooperativity analysis with thermodynamic equilibrium model. The following applies: determined by the thermodynamic model from 2D FA titrations; 95% confidence interval; read-out: apparent binding affinity of ChREBP for 14-3-3 (K^IID). It is filed as binding. How it is done: a four-parameter logistic model (4PL). Each measurement was performed in two independent […]
Fluorescence anisotropy (FA) - 2D-14-3-3/ChREBP titrations: 14-3-3γ was titrated in a 2-fold dilution series (starting at 300 µM 14-3-3γ) to 20 nM of fluorescein-labeled peptide 2d in FA buffer (10 mM HEPES pH 7.4, 150 mM NaCl, 0.1% (v/v) Tween20, 0.1% (w/v) BSA) in presence of 2-fold dilution series of unlabeled ChREBP peptide (0.01-10 µM). Dilution series were made in a polystyrene (non-binding) low-volume Corning Black Round Bottom 384-well plates (Corning 4514 or 4511). Measurements were performed directly after plate preparation, using a Tecan Infinite F500 plate reader at room temperature (lex: 485 ± 20 nm; lem: 535 ± 25 nm; mirror: Dichroic 510; flashes: 20; integration time: 50 ms; settle time:
0 ms; gain: optimal; and Z-position: calculated from well). Wells containing only FITC-peptide were used to set as G-factor at 35 mP. All data were analyzed using GraphPad Prism (7.00) for Windows and fitted using a four-parameter logistic model (4PL). […]
with R = 14-3-3, P = non-natural peptide (labelled), and C = ChREBP. The framework determined based on this system description the equilibrium equations needed to determine KDII and α. […] From this the model determined the KDII and α (with 95% confidence interval) and the error-landscape of the determine parameters. […]

For another test, the target named is T2, ChREBP peptide (Homo sapiens, UniProt Q9NP71).
T2 chain: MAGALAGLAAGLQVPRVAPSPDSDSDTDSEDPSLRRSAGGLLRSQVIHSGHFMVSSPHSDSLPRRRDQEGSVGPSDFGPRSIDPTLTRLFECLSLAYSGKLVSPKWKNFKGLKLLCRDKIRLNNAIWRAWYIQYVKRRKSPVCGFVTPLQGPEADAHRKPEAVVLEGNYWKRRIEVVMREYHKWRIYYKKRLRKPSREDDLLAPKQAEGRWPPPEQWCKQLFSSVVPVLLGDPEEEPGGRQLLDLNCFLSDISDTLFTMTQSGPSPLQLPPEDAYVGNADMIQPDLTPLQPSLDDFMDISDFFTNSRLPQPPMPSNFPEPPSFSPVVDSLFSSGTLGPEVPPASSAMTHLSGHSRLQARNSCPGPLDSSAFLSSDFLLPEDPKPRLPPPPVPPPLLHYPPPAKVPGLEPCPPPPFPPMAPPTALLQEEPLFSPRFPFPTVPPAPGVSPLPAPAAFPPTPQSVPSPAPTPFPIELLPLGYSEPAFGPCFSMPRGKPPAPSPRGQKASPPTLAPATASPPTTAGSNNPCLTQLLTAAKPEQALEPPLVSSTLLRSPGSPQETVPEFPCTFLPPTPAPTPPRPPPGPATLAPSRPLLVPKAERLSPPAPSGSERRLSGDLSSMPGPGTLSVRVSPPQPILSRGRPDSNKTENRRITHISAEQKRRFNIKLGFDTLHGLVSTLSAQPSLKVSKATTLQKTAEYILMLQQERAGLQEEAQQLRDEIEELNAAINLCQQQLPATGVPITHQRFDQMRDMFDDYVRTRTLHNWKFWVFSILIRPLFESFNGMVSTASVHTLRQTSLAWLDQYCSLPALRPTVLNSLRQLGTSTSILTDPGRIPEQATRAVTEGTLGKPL
The test is described as follows: 2D fluorescence anisotropy titration, thermodynamic equilibrium model fit. A general note: Fluorescence polarisation rises when a labelled molecule tumbles more slowly, as on binding a larger partner.

Where a SMILES comes first, the peptide text is derived from it.

With `CC[C@H](C)[C@H](NC(=O)[C@H](C)NC(=O)[C@H](CC(N)=O)NC(=O)[C@H](CC(N)=O)NC(=O)[C@H](CC(C)C)NC(=O)[C@H](CCCNC(=N)N)NC(=O)[C@@H](NC(=O)[C@H](CCCCN)NC(=O)[C@H](CC(=O)O)NC(C)=O)[C@@H](C)CC)C(=O)N[C@@H](Cc1c[nH]c2ccccc12)C(=O)N[C@@H](CCCNC(=N)N)C(=O)N[C@@H](C)C(=O)N[C@@H](Cc1c[nH]c2ccccc12)C(=O)N[C@@H](Cc1ccc(O)cc1)C(=O)N[C@H](C(=O)N[C@@H](CCC(N)=O)C(=O)N[C@@H](Cc1ccc(O)cc1)C(=O)N[C@H](C(=O)N[C@@H](CCCCN)C(=O)N[C@@H](CCCNC(=N)N)C(=O)N[C@@H](CCCNC(=N)N)C(=O)N[C@@H](CCCCN)C(=O)N[C@@H](CO)C(=O)N1CCC[C@H]1C(=O)N[C@H](C(N)=O)C(C)C)C(C)C)[C@@H](C)CC` [ChREBP, reference compound] (Ac-DKIRLNNAIWRAWYIQYVKRRKSPV-NH2), the Kd at 14-3-3γ/ChREBP turned out to be 1600 nM.

B1: 14-3-3γ (protein)
chain: VDREQLVQKARLAEQAERYDDMAAAMKNVTELNEPLSNEERNLLSVAYKNVVGARRSSWRVISSIEQKTSADGNEKKIEMVRAYREKIEKELEAVCQDVLSLLDNYLIKNCSETQYESKVFYLKMKGDYYRYLAEVATGEKRATVVESSEKAYSEAHEISKEHMQPTHPIRLGLALNYSVFYYEIQNAPEQACHLAKTAFDDAIAELDTLNEDSYKDSTLIMQLLRDNLTLWTSDQQDDDGGEGNN
On to B1, for which the Kd in the test with ChREBP peptide turned out to be 1600 nM.

The record behind these values is publication PMC9667936, “Functional mapping of the 14-3-3 hub protein as a guide to design 14-3-3 molecular glues” (Chemical Science, 2022).
